Reference: publication PMC8216263 (Pharmaceutical Biology, 2021)

Key:
OATP1B1 = molecular target: T1, OATP1B1 (Homo sapiens, UniProt Q9Y6L6); experiment: Inhibition of OATP1B1-mediated 3H-ES uptake in HEK293-OATP1B1 cells; type: cell-based; conditions: GA 50–5000 μg/L, PCA 10–1000 μg/L
T1 sequence (Q9Y6L6 1-691): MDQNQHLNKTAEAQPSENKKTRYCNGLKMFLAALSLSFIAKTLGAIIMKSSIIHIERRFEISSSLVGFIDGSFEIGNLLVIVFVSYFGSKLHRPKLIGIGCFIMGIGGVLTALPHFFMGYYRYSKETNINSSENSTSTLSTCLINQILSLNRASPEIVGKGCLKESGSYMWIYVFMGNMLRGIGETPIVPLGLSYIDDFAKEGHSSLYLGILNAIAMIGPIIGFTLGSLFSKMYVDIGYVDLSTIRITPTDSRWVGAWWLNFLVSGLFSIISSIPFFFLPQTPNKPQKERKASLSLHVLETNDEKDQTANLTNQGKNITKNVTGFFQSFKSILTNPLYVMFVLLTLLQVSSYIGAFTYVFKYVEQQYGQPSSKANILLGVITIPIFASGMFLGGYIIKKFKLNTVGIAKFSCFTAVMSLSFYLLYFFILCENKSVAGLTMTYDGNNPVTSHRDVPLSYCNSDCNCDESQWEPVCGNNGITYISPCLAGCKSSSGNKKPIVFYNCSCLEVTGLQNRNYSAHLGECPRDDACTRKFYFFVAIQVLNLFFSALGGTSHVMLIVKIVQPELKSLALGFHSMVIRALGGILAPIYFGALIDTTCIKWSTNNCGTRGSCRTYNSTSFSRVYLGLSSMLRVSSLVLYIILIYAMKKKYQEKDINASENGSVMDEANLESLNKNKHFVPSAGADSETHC
Description: The human multidrug resistance protein (MDR)1-transfected Madin–Darby Canine Kidney (MDCK) cells, human breast cancer resistance protein (BCRP)-transfected MDCK cells, human organic anion transporter (OAT)1-transfected MDCK cells, OAT3-transfected second portion of proximal tubule (S2) cells, human organic cation transporter (OCT)2-transfected S2 cells, human organic anion transporting polypeptide (OATP)1B1-transfected human embryonic kidney 293 (HEK293) cells and their MOCK cells were kindly provided by Japan Fuji Biomedical Co., Ltd. (Osaka, Japan). Cells were cultured in DMEM supplemented with 10% FBS, 100 units/mL penicillin and 100 […]. All cells were incubated in a humidified atmosphere of 95% air and 5% CO2 at 37 °C. A solution of 0.25% trypsin-EDTA was used to detach the cells from flasks. Cell culture flasks, 24-well cell culture plates, and transwell polycarbonate inserts (12 mm diameter, 0.4 μm pore size) were purchased from Corning Co-star Corp. (Bedford, MA).
Concentration-dependent inhibitions were conducted to study GA and PCA’s inhibitory effects on uptake transporters OAT1, OAT3, OCT2 and OATP1B1. The MDCK-OAT1, S2-OAT3, S2-OCT2 and HEK293-OATP1B1 cell lines were utilized in this study. […] The radioactive intensity was measured using a Tri-Carb 2910TR scintillator (PerkinElmer, Waltham, MA). […]

OCT2 = molecular target: T2, OCT2 (Homo sapiens, UniProt O15244); experiment: Inhibition of OCT2-mediated 14C-TEA uptake in S2-OCT2 cells; type: cell-based; conditions: GA at 150 and 500 μg/L; PCA 100 to 1000 μg/L; p < 0.05 vs control
T2 construct: host or cells: S2 (second portion of proximal tubule) cells
T2 sequence (O15244 1-555): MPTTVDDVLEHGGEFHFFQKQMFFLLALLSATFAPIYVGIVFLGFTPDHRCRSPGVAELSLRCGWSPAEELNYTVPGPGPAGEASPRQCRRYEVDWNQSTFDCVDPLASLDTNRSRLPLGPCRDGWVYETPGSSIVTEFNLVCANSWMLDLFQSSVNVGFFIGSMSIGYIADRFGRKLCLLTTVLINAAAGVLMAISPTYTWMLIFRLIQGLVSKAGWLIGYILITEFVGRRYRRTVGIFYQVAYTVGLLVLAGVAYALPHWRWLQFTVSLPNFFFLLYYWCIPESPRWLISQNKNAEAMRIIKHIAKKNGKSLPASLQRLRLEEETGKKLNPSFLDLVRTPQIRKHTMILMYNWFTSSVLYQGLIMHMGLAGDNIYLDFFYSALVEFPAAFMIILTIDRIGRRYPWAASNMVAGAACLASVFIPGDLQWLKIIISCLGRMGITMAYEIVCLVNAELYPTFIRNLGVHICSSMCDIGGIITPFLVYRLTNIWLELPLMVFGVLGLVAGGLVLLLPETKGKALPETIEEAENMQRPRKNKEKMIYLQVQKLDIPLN
Description: Cells were cultured in DMEM supplemented with 10% FBS, 100 units/mL penicillin and 100 units/mL streptomycin. […] Cell culture flasks, 24-well cell culture plates, and transwell polycarbonate inserts (12 mm diameter, 0.4 μm pore size) were purchased from Corning Co-star Corp. (Bedford, MA).
The MDCK-OAT1, S2-OAT3, S2-OCT2 and HEK293-OATP1B1 cell lines were utilized in this study. […] Briefly, S2-OAT3, S2-OCT2 and S2-mock cells were trypsinized and uniformly suspended in the culture medium’s designated volume to provide a density of 2.0 × 10^5 cells/mL. A 1.0-mL aliquot of the cell suspension was added into each well of 24-well insert plates. HEK293-OATP1B1, MDCK-OAT1 and their mock cells were seeded in 24-well plates at a density of 1.5 × 10^5 cells/well. […] Three washes terminated the experiment with ice-cold DPBS buffer after removing the incubation buffer. Cells were lysed with 400 μL of […] sodium hydroxide solution. The cell lysate and 3.0 mL of aquasol-2 scintillation fluid were put into a scintillation flask. […] The final concentration of DMSO in the assay was less than 0.1%. All experiments were performed in triplicate.

In the case of `O=C(O)c1ccc(O)c(O)c1` [PCA, protocatechuic acid], the “inhibitory effect on OATP1B1-mediated uptake of 3H-ES” value (OATP1B1) is reported as “no statistical differences” and the “effect on OCT2-mediated uptake of 14C-TEA” value (OCT2) is reported as “statistical decline”.
